Measured values: paper PMC5458211, “Mitochondrial VDAC1-based peptides: Attacking oncogenic properties in glioblastoma” (Oncotarget, 2017)
Non-standard residues stand in square brackets, D forms with d. Residues, ends and D or L forms follow the SMILES beside them.

Experiments:
Assay type in all cases: cell-based, human
U-87MG cells = assay: Apoptosis by acridine orange/ethidium bromide staining, U-87MG; conditions: 3 h, mean ± SE (n=3), DMSO control 9.8 ± 5.3
Experimental: Figure 2 Mode of action of VDAC1-based peptides – interacting with- and detaching HK, releasing Cyto c, decreasing ATP level and inducing apoptosis A. Purified HK-II was fluorescently labeled using the NanoTemper protein-labeling Kit BLUE. […] Then, 3-5 μl of the samples were loaded into MST-grade glass capillaries and thermophoresis was measured using a Monolith-NT115 apparatus, as described in Materials and methods available online in Supplemental information. […] The final DMSO concentration in control and peptide-treated cells was 0.07%. Fixed cells were visualized using confocal microscopy (Olympus 1×81), as described in Materials and Methods available online in Supplemental information. Arrows indicate cells with diffusion of HK-I-GFP. C. […] Anti-GAPDH antibodies were used to verify the cytosolic extracts. The levels of HK in the supernatants were quantified and are presented as relative units. D. D-ΔN-Ter-Antp induces mitochondrial inner membrane depolarization analyzed as described in Materials and Methods available online in Supplemental information. U-87MG cells were incubated for 3 h with the indicated concentrations of D-ΔN-Ter-Antp or with FCCP (1 h, 25 μM). Cells then were analyzed for Δψ using TMRM. Δψ is presented as percentage of control. Results = mean ± SE (n=3) (*** p≤0.001, ****p ≤0.0001). […] Cellular ATP levels are presented as percentage of control. Results = mean ± SE (n=2 or 3) (* p≤0.05, ** p≤0.01). […] Release of Cyto c from the mitochondria was analyzed by immunostaining using anti-Cyto c antibodies and confocal microscopy (Olympus 1×81) as described in Materials and Methods available online in Supplemental information. Arrows indicate cells showing diffusion of Cyto c. […] Arrows and arrowheads indicate cells with membrane blebbing (early apoptotic state) and late apoptotic states, respectively. Quantification of apoptosis in control and peptide's treated cells are presented bellow the images. Results = mean ± SE (n=3) (** p≤0.01, *** p≤0.001, **** p≤0.0001).
Cells (6×10^5 /ml) were incubated in 500 μl serum-free medium with the peptide of interest for 6 h at 37°C in the presence of 5% CO2. The cells were then trypsinized, centrifuged (1500xg, 5 min), washed with PBS and analyzed for cell death using propidium iodide (PI) staining and flow cytometer (Beckton-Dickinson, San Jose, CA) and BD CellQuest Pro software. Apoptotic cell death was also analyzed by PI and annexin V-FITC staining, and by acridine orange and ethidium bromide staining and light microscopy (Olympus LX2-KSP).

U-118MG cells = assay: Cell death by PI staining and flow cytometry, U-118MG; conditions: 6 h at 37°C, serum-free medium, means ± SD (n=3), Fig 1H, read-out: IC50 for inducing cell death
Source text: Figure 1 VDAC1-based peptides induce dramatic cell death of several brain tumor-derived cell lines but to lesser extent in primary brain cells A. IHC staining of VDAC1 of human normal brain (n=13) or glioblastoma (n=41) in tissue array slides (Biomax), as described in Materials and methods available online in Supplemental information. Percentages of sections stained at the intensity indicated are shown. […] The VDAC1-derived sequences Δ(1-14)N-terminus and LP4 are in green and pink, respectively. The cell-penetrating peptides Antp and Tf are in orange and blue, respectively. The loop shape of LP4 stabilized by a tryptophan zipper is in purple. The amino acids of Δ(1-14)N-terminus, LP4 and Antp are in the D configuration. The sequences of D-LP4 and Retro-D-LP4 are presented below. C. […] Cells were harvested, washed twice with PBS and cell death was analyzed by propidium iodide (PI) staining and flow cytometry. […] Cells were harvested, washed twice with PBS and cell death was analyzed by PI staining and flow cytometry. […]
Cells (6×10^5 /ml) were incubated in 500 μl serum-free medium with the peptide of interest for 6 h at 37°C in the presence of 5% CO2. The cells were then trypsinized, centrifuged (1500xg, 5 min), washed with PBS and analyzed for cell death using propidium iodide (PI) staining and flow cytometer (Beckton-Dickinson, San Jose, CA) and BD CellQuest Pro software. […]

HK-I-GFP = HK-I-GFP detachment from mitochondria by confocal microscopy, U-87MG; conditions: 7 μM, 3 h, serum-free medium
Experimental: (§1) Figure 2 Mode of action of VDAC1-based peptides – interacting with- and detaching HK, releasing Cyto c, decreasing ATP level and inducing apoptosis A. Purified HK-II was fluorescently labeled using the NanoTemper protein-labeling Kit BLUE. […] Then, 3-5 μl of the samples were loaded into MST-grade glass capillaries and thermophoresis was measured using a Monolith-NT115 apparatus, as described in Materials and methods available online in Supplemental information. […] The final DMSO concentration in control and peptide-treated cells was 0.07%. Fixed cells were visualized using confocal microscopy (Olympus 1×81), as described in Materials and Methods available online in Supplemental information. […] The levels of HK in the supernatants were quantified and are presented as relative units. D. D-ΔN-Ter-Antp induces mitochondrial inner membrane depolarization analyzed as described in Materials and Methods available online in Supplemental information. […] Cells then were analyzed for Δψ using TMRM. Δψ is presented as percentage of control. […] Release of Cyto c from the mitochondria was analyzed by immunostaining using anti-Cyto c antibodies and confocal microscopy (Olympus 1×81) as described in Materials and Methods available online in Supplemental information. […] Quantification of apoptosis in control and peptide's treated cells are presented bellow the images. […]

[1] = test system: cellular ATP levels in U-87MG cells; assay: Cellular ATP levels (CellTiter-Glo); conditions: 3 h, % of control, n=2 or 3
Experimental: as §1

[2] = test system: Cyto c release in U-87MG cells; assay: Cytochrome c release by immunofluorescence; conditions: 10 μM, 3 h, serum-free medium
Experimental: as §1

## CC[C@@H](C)[C@@H](NC(=O)[C@@H](CCCCN)NC(=O)[C@H](NC(=O)[C@@H](CCC(N)=O)NC(=O)[C@@H](CCCNC(=N)N)NC(=O)[C@@H](CC(C)C)NC(=O)CNC(=O)[C@@H](Cc1ccccc1)NC(=O)CNC(=O)[C@@H](Cc1ccc(O)cc1)NC(=O)CNC(=O)[C@@H](CCCCN)NC(=O)[C@H](NC(=O)[C@@H](Cc1ccccc1)NC(=O)[C@H](NC(=O)[C@@H](CC(=O)O)NC(=O)[C@H](N)CCCNC(=N)N)C(C)C)[C@H](C)O)[C@H](C)CC)C(=O)N[C@H](Cc1c[nH]c2ccccc12)C(=O)N[C@H](Cc1ccccc1)C(=O)N[C@H](CCC(N)=O)C(=O)N[C@H](CC(N)=O)C(=O)N[C@H](CCCNC(=N)N)C(=O)N[C@H](CCCNC(=N)N)C(=O)N[C@H](CCSC)C(=O)N[C@H](CCCCN)C(=O)N[C@H](Cc1c[nH]c2ccccc12)C(=O)N[C@H](CCCCN)C(=O)N[C@H](CCCCN)C(=O)O [D-ΔN-Ter-Antp] (H-[dR][dD][dV][dF][dT][dK]G[dY]G[dF]G[dL][dR][dQ][dI][dK][dI][dW][dF][dQ][dN][dR][dR][dM][dK][dW][dK][dK]-OH; N-terminus and C-terminus assumed)
U-87MG cells; 3 μM
  Apoptosis, %: 45.4 ± 2.6%
U-87MG cells; 5 μM
  Apoptosis, %: 63.4 ± 3.8%
U-118MG cells
  IC50: 5 ± 0.6 µM
HK-I-GFP
  HK-I-GFP detachment (fluorescence distribution): became diffuse
[1]
  decrease in cellular ATP levels: about 80%
[2]
  Cyto c release: partial Cyto c release

## CC[C@H](C)[C@H](NC(=O)[C@H](C)NC(=O)[C@@H](N)Cc1c[nH]cn1)C(=O)N[C@@H](Cc1ccc(O)cc1)C(=O)N1CCC[C@H]1C(=O)N[C@@H](CCCNC(=N)N)C(=O)N[C@@H](Cc1c[nH]cn1)C(=O)N[C@@H](CO)C(=O)N[C@@H](Cc1c[nH]c2ccccc12)C(=O)N[C@H](C(=O)N[C@@H](Cc1c[nH]c2ccccc12)C(=O)N[C@@H](CCC(=O)O)C(=O)N[C@H](CCCCN)C(=O)N[C@H](CCCCN)C(=O)N[C@H](CC(C)C)C(=O)N[C@H](CCC(=O)O)C(=O)N[C@@H](C(=O)N[C@H](C)C(=O)N[C@@H](C(=O)N[C@H](CC(N)=O)C(=O)N[C@H](CC(C)C)C(=O)N[C@H](C)C(=O)N[C@H](Cc1c[nH]c2ccccc12)C(=O)N[C@@H](C(=O)N[C@H](C)C(=O)NCC(=O)N[C@H](CC(N)=O)C(=O)N[C@H](CO)C(=O)N[C@H](CC(N)=O)C(=O)N[C@@H](CCCCN)C(=O)N[C@@H](Cc1c[nH]c2ccccc12)C(=O)N[C@H](C(=O)N[C@@H](Cc1c[nH]c2ccccc12)C(=O)N[C@@H](CCCCN)C(=O)O)[C@@H](C)O)[C@H](C)O)C(C)C)[C@H](C)O)[C@@H](C)O [Tf-D-LP4]
U-87MG cells; 3 μM
  Apoptosis, %: 55.8 ± 1.0%
U-87MG cells; 5 μM
  Apoptosis, %: 73.9 ± 5.7%
U-118MG cells
  IC50: 1.7 ± 0.3 µM
HK-I-GFP
  HK-I-GFP detachment (fluorescence distribution): became diffuse
[1]
  decrease in cellular ATP levels: about 50%
[2]
  Cyto c release: partial Cyto c release
